Reference: patent US20080058271A1, “Prevention of primary sjogren' s Syndrome by ICA69 deficiency” (priority 2002, published 2008)
Ends that are not written are not given here.

What was measured:
[1] = system: NOD lymph node cells; test: T cell proliferative responses in draining lymph node cells; format: cell-based, mouse; details: 10 week old NOD females, pooled lymph node cells
Method: FIG. 2. T cell proliferative responses to ICA69, its dominant epitope, Tep69, BSA, and its dominant NOD mouse epitope, ABBOS, were measured in lymph nodes draining the pancreas (A), and submandibular glands (B), or lymph nodes draining the lower (C) or upper (D) extremities. Gray columns: control cultures stimulated with ovalbumin (OVA) or Medium (MED) only. To obtain sufficient cell numbers, lymph node cells were pooled from seven mice. One of three similar data sets is shown.
(§1) NOD lymph-node, spleen and human peripheral blood T cell responses were measured with three slightly different protocols. Draining lymph node cells from 10 week old NOD females were pooled. 2×10^5 lymph node cells along with 2×10^5 irradiated (1100 rad) syngeneic spleen cells were cultured in serum-free AIM-V media (Life Technologies, Mississauga, Ontario, Canada) in the presence of protein or peptide antigen. Proteins (ICA69, BSA or OVA) were used at concentrations of […], peptides (Tep69, ABBOS) at […]. After 72 hr of incubation, cultures were pulsed overnight with […] of [^3H]thymidine, harvested and subjected to liquid scintillation counting. Experiments were repeated three times with similar results, each with lymph nodes pooled from groups of 4-7 mice. Proliferation assays with spleen cells used 4×10^5 responding cells/well and no irradiated splenocytes. For the detection of human T cell responses, Ficoll-Hypaque purified peripheral blood mononuclear cells (PBMC) were cultured at 10^5 cells/well for one week in serum-free Hybrimax 2897 medium (Sigma) supplemented with human IL-2 (10 U/well) and 0.01-10 mg of antigen^15. This assay performed well in a large, blinded study and in the first international T cell workshop of the Immunology of Diabetes Society^22.
This phenotype could reflect a role for ICA69 as an autoantigen or a role for ICA69 protein-function. To begin an analysis of these two alternatives, we measured T cell autoreactivity to ICA69 and its immunodominant T cell epitope, Tep69, in 10 week old NOD females. Proliferative in vitro recall responses were assessed in draining lymph nodes from various tissues, in order to localize where T cell tolerance to ICA69 was lost. […] Spleen cell responses to ICA69, Tep69, BSA and ABBOS were present as previously described by us^21 and others^24 (data not shown, but for example see FIG. 3F).

[2] = system: MHC class II; details: reference 21; cited from earlier work
[3] = system: peripheral blood mononuclear cells (PBMC); test: Human T cell proliferative responses in PBMC; format: cell-based; details: for T cell responses in patients with SLE and in healthy controls / patients with primary SS with positive T cell responses: PBMC; for T cell responses in patients with SLE and in healthy controls: SLE n=6, healthy controls n=12; for patients with primary SS with positive T cell responses: n=9, P 0.008 vs. SLE, P 0.004 vs. healthy controls; for T cell responses to control antigens (stimulation index): PBMC of primary SS, SLE patients and healthy controls
Method: FIG. 7.(A) T cell responses to ICA69, BSA, Tep69, and ABBOS were analyzed in patients with primary SS (n=9) SLE patients (n=6) or healthy controls (n=12). Positive responses to tetanus toxoid (TT) contrasted with negative responses to OVA, actin or the type 1 diabetes-associated GAD65 peptide, p555. Data are expressed as stimulation index (SI, experimental/background cpm, as described herein). Background counts were similar in all cohorts (mean±SD: 1154±354 cpm). FIG. 8. Autoantibodies to ICA69 (1 μg protein/lane) were detected in Western blots of sera (1 to 1000 dilution) from patients with pSS (lanes 1-5) but not in controls (lanes 6-8).
Blood samples were obtained from patients (n=15) with primary SS or SLE at the Arthritis Center at Toronto Western Hospital and from healthy, adult volunteers through ethics-board approved consent (n=12). pSS patients were female, had documented xerostomia and xerophthalmia and met San Diego disease criteria. All were anti-Ro antibody positive, 6 had anti-fodrin autoantibodies and all had minor salivary gland biopsy focus scores of >5. Healthy controls (n=12) of similar age and gender profile were recruited from staff. Fresh blood was used for T cell studies. In immunoblotting experiments, sera from patients and controls were diluted at 1:1000 and blotted on nitrocellulose containing […] of recombinant ICA69 protein to detect the presence of anti-ICA69 antibodies.
as §1
Proliferative T cell responses were expressed as stimulation index (SI, experimental/control cpm). SI's greater than the mean SI in OVA-stimulated cultures plus 3 SD were deemed positive^15. Numeric data were compared by Mann-Whitney tests, Fisher's exact test was used to analyze tables. All P values were two-tailed and significance was set at 5%. Figures present mean values plus lSD.
To determine if ICA69 was an autoimmune target in patients with primary SS, we first measured T cell responses to ICA69 and Tep69 in PBMC from patients with primary SS (n=9), systemic lupus erythematosus (SLE, n=6) and age-matched healthy controls (n=12) (FIG. 7A).

[4] = system: NOD mouse pSS (salivary disease); details: instantly disclosed protocol
[5] = system: NOD mouse sialoadenitis (submandibular gland mononuclear foci); details: single i.p. 200 mg ABBOS in IFA, 10 wk old NOD females

AFIKATGKKEDE [Tep69]
T cell proliferative responses in pancreatic and submandibular lymph node cells [1]: detected | T cell proliferative responses in popliteal or axillary lymph nodes [1]: not in popliteal or axillary lymph nodes | MHC class II affinity [2]: very low | T cell responses in patients with SLE and in healthy controls [3]: absent | patients with primary SS with positive T cell responses [3]: 8 of 9

FKADEKKFWGKYLYE [ABBOS, FKADEKKFWGKYLYE]
disease acceleration with the optimized treatment protocol [4]: no acceleration | mice with moderate disease exacerbation [5]: 12% | mice with moderate disease exacerbation (of mice analyzed) [5]: 2/17

OVA: Ovalbumin (Sigma), control antigen
T cell responses to control antigens (stimulation index) [3]: negative

TT: tetanus toxoid, positive control antigen
T cell responses to control antigens (stimulation index) [3]: Positive

actin
T cell responses to control antigens (stimulation index) [3]: negative

B1: ICA69: Human recombinant islet cell autoantigen 69 kDa (protein)
chain: MSGHKCSYPWDLQDRYAQDKSVVNKMQQKYWETKQAFIKATGKKEDEHVVASDADLDAKLELFHSIQRTCLDLSKAIVLYQKRICFLSQEENELGKFLRSQGFQDKTRAGKMMQATGKALCFSSQQRLALRNPLCRFHQEVETFRHRAISDTWLTVNRMEQCRTEYRGALLWMKDVSQELDPDLYKQMEKFRKVQTQVRLAKKNFDKLKMDVCQKVDLLGASRCNLLSHMLATYQTTLLHFWEKTSHTMAAIHESFKGYQPYEFTTLKSLQDPMKKLVEKEEKKKINQQESTDAAVQEPSQLISLEEENQRKESSSFKTEDGKSILSALDKGSTHTACSGPIDELLDMKSEEGACLGPVAGTPEPEGADKDDLLLLSEIFNASSLEEGEFSKEWAAVFGDGQVKEPVPTMALGEPDPKAQTGSGFLPSQLLDQNMKDLQASLQEPAKAASDLTAWFSLFADLDPLSNPDAVGKTDKEHELLNA
T cell proliferative responses in pancreatic and submandibular lymph node cells [1]: detected | T cell proliferative responses in popliteal or axillary lymph nodes [1]: not in popliteal or axillary lymph nodes | T cell responses in patients with SLE and in healthy controls [3]: absent | patients with primary SS with positive T cell responses [3]: 8 of 9
